Counter-ions that a name gives are not always drawn.
How the values were obtained:
S1P1 [1] = target: T1, S1P1 (Homo sapiens (Human), UniProt P21453); assay: 35S-GTPγS binding, membranes from CHO cells expressing S1P1; assay type: biochemical; details: CHO cell membranes
S1P3 = S1P3 (Homo sapiens (Human), UniProt Q99500); assay: 35S-GTPγS binding, membranes from CHO cells expressing S1P3; assay type: biochemical; details: CHO cell membranes
Experimental: (§1) Receptor binding assay: Membranes were prepared from CHO cells expressing S1P1 or S1P3 for use in ligand and […] binding studies. Cells were suspended in 50 mM TRIS, pH 7.4, 2 mM EDTA, 250 mM Sucrose (buffer A) and 1× Complete protease inhibitor cocktail (Roche), and disrupted at 4° C. by N2 decompression using a cell disruption bomb (Parr Instrument). Following centrifugation at 1000 RPM for 10 min at 4° C., the supernatant was suspended in buffer A and centrifuged again at 19000 RPM for 60 min at 4° C. The pellet was then suspended in 10 mM HEPES, pH 7.4, 1 mM EDTA, 250 mM Sucrose (Buffer B), and 1× Complete EDTA-free protease inhibitor cocktail and homogenized using a potter. Membranes were flash frozen in liquid N2 and stored at −80° C. [33P]sphingosine 1-phosphate (3000 Ci/mmol; American Radiolabeled Chemicals, Inc.) was added to test compounds in DMSO. Membranes and WGA SPA beads (GE Healthcare) were added to give a final volume of 100 μl in 96-well plates with assay concentrations of 25 pM or 10 pM [33P]sphingosine 1-phosphate (respectively for S1P1 or S1P3), 50 mM HEPES, pH 7.5, 5 mM MgCl2, 100 mM NaCl, 0.4% fatty acid-free BSA, 1-5 μg/well of proteins and 100 μg/well of WGA SPA beads. Binding was performed for 60 min at RT on a shaker and bound radioactivity was measured on a PerkinElmer 1450 MicroBeta counter. Specific binding was calculated by subtracting remaining radioactivity in the presence of 1000-fold excess of unlabeled SIP. Binding data were analyzed using the GraphPad Prism program.
Measurements of 35S-GTPγS Binding: Membranes (1 to 10 μg protein) prepared as described above, were incubated in 96-well Scintiplates (PerkinElmer) with test compounds diluted in DMSO, in 180 μl of 20 mM HEPES, pH 7.4, 10 mM MgCl2, 2 μg/well Saponin, 0.2% fatty acid free BSA (Assay buffer), 140 mM NaCl and 1.7 μM GDP. The assay was initiated with the addition of 20 μl of 1.5 nM [35S]-GTPγS (1100 Ci/mmol; GE Healthcare) in assay buffer. After 60 min incubation at 30° C. on a shaker, plates were centrifuged for 10 min at 2000 RPM. Supernatant was discarded and membrane bound radioactivity was measured on a PerkinElmer 1450 MicroBeta counter. Triplicate samples were averaged and expressed as % response relative to S1P activation in absence of compound (n=2).

S1P1 [2] = target: T1, S1P1; assay: Receptor binding assay, [33P]sphingosine 1-phosphate, membranes from CHO cells expressing S1P1; details: CHO cell membranes, 25 pM [33P]sphingosine 1-phosphate
Experimental: as §1

S1P3, sequence (Q99500 whole entry, species assumed): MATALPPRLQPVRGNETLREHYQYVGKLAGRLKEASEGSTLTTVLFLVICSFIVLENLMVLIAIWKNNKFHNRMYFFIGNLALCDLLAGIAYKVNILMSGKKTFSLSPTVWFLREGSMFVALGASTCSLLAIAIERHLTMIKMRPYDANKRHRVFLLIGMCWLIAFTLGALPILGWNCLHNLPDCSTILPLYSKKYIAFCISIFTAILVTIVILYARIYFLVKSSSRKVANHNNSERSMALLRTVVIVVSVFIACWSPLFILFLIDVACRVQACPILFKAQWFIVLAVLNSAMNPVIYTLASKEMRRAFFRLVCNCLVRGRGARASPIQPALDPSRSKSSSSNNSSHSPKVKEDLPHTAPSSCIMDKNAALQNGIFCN
T1 sequence (P21453 whole entry, species assumed): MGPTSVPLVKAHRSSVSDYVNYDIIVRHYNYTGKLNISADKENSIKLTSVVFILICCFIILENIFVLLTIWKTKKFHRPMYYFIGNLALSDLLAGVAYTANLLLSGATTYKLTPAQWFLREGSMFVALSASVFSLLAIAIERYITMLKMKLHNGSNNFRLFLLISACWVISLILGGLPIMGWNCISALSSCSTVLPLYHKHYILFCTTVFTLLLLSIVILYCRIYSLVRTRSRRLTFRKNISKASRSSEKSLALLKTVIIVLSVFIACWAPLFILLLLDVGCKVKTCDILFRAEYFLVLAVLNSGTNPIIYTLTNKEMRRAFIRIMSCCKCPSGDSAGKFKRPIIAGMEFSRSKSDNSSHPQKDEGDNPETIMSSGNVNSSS

EC50 (S1P1 [1]) [nM]	EC50 (S1P3) [nM]	Ki (S1P1 [2]) [nM]	SMILES
9.5	1470	2.3	CC(C)Cn1ncc(-c2nc(-c3ccc(CN4CC(C(=O)O)C4)cc3)no2)c1-c1ccncc1 [Example 79, 1-(4-(5-(1-isobutyl-5-(pyridin-4-yl)-1H-pyrazol-4-yl)-1,2,4-oxadiazol-3-yl)benzyl)azetidine-3-carboxylic acid]
12	1640	–	CC(C)Cn1ncc(-c2nc(-c3ccc(CNCCC(=O)O)cc3)no2)c1-c1ccncc1 [Example 89, 3-(4-(5-(1-isobutyl-5-(pyridin-4-yl)-1H-pyrazol-4-yl)-1,2,4-oxadiazol-3-yl)benzylamino)propanoic acid]
8.5	147	–	c1cc(-c2c(-c3nc(-c4ccc(Cn5cncn5)cc4)no3)cnn2C2CCCCC2)ccn1 [Example 91, 3-(4-((1H-1,2,4-triazol-1-yl)methyl)phenyl)-5-(1-cyclohexyl-5-(pyridin-4-yl)-1H-pyrazol-4-yl)-1,2,4-oxadiazole]
31	2250	6.5	CC(C)Cn1ncc(-c2nc(-c3ccc(CN4CC(C(=O)O)C4)cc3)no2)c1C1CCOCC1 [Example 96, 1-(4-(5-(1-isobutyl-5-(tetrahydro-2H-pyran-4-yl)-1H-pyrazol-4-yl)-1,2,4-oxadiazol-3-yl)benzyl)azetidine-3-carboxylic acid]
1.4	138	0.7	O=C(O)C1CN(Cc2ccc(-c3noc(-c4cnn(C5CCCCC5)c4C4CCOCC4)n3)cc2)C1 [Example 97, 1-(4-(5-(1-cyclohexyl-5-(tetrahydro-2H-pyran-4-yl)-1H-pyrazol-4-yl)-1,2,4-oxadiazol-3-yl)benzyl)azetidine-3-carboxylic acid]
2.1	214	0.8	O=C(O)CCNCc1ccc(-c2noc(-c3cnn(C4CCCCC4)c3C3CCOCC3)n2)cc1 [Example 102, 3-(4-(5-(1-cyclohexyl-5-(tetrahydro-2H-pyran-4-yl)-1H-pyrazol-4-yl)-1,2,4-oxadiazol-3-yl)benzylamino)propanoic acid]
11	622	2	OCc1ccc(-c2noc(-c3cnn(C4CCCCC4)c3C3CCCO3)n2)cc1 (centres unmarked) [Example 117, (4-(5-(1-cyclohexyl-5-(tetrahydrofuran-2-yl)-1H-pyrazol-4-yl)-1,2,4-oxadiazol-3-yl)phenyl)methanol]
0.5	489	0.1	COCCc1c(-c2nc(-c3ccc(CN4CC(C(=O)O)C4)cc3)no2)cnn1C1CCCCC1 [Example 120, 1-(4-(5-(1-cyclohexyl-5-(2-methoxyethyl)-1H-pyrazol-4-yl)-1,2,4-oxadiazol-3-yl)benzyl)azetidine-3-carboxylic acid]
1.9	427	0.6	O=C(O)C1CCN(Cc2ccc(-c3noc(-c4cnn(C5CCCCC5)c4C4CCCO4)n3)cc2)CC1 (centres unmarked) [Example 125, 1-(4-(5-(1-cyclohexyl-5-(tetrahydrofuran-2-yl)-1H-pyrazol-4-yl)-1,2,4-oxadiazol-3-yl)benzyl)piperidine-4-carboxylic acid]

Continued, compound first:

SMILES	EC50 (S1P1 [1]) [nM]	EC50 (S1P3) [nM]	Ki (S1P1 [2]) [nM]
COCc1c(-c2nc(-c3cc(F)ccc3F)no2)cnn1-c1ccccc1 [Example 1, 3-(2,5-difluorophenyl)-5-(5-(methoxymethyl)-1-phenyl-1H-pyrazol-4-yl)-1,2,4-oxadiazole]	304	> 20000	272
CS(=O)(=O)c1cccc(-c2noc(-c3cnn(-c4ccccc4F)c3-c3ccncc3)n2)c1 [Example 9, 4-(1-(2-fluorophenyl)-4-{3-[3-(methylsulfonyl)phenyl]-1,2,4-oxadiazol-5-yl}-1H-pyrazol-5-yl)pyridine]	28	> 20000	5
Fc1ccc(F)c(-c2noc(-c3cnn(C4CCCCC4)c3-c3ccccc3)n2)c1 [Example 11]	6	142	9
CC(C)Cn1ncc(-c2nc(-c3cccc(C(F)(F)F)c3)no2)c1-c1ccncc1 [Example 37, 4-(1-isobutyl-4-{3-[3-(trifluoromethyl)phenyl]-1,2,4-oxadiazol-5-yl}-1H-pyrazol-5-yl)pyridine]	9	> 20000	–
c1cc(-c2c(-c3nc(-c4ccc5[nH]ncc5c4)no3)cnn2C2CCCCC2)ccn1 [Example 38, 5-[5-(1-cyclohexyl-5-pyridin-4-yl-1H-pyrazol-4-yl)-1,2,4-oxadiazol-3-yl]-1H-indazole]	3	474	68
CC(C)Cn1ncc(-c2nc(-c3ccc4[nH]ncc4c3)no2)c1-c1ccncc1 [Example 40, 5-[5-(1-isobutyl-5-pyridin-4-yl-1H-pyrazol-4-yl)-1,2,4-oxadiazol-3-yl]-1H-indazole]	11	523	–
CN(C)Cc1ccc(-c2noc(-c3cnn(C4CCCCC4)c3-c3ccncc3)n2)cc1 [Example 41, 1-{4-[5-(1-cyclohexyl-5-pyridin-4-yl-1H-pyrazol-4-yl)-1,2,4-oxadiazol-3-yl]phenyl}-N,N-dimethylmethanamine]	9	486	–
O=C(O)C1CN(Cc2ccc(-c3noc(-c4cnn(C5CCCCC5)c4-c4ccncc4)n3)cc2)C1 [Example 42, 1-{4-[5-(1-cyclohexyl-5-pyridin-4-yl-1H-pyrazol-4-yl)-1,2,4-oxadiazol-3-yl]benzyl}azetidine-3-carboxylic acid]	1	1020	–
C[C@@H]1CCCC[C@@H]1n1ncc(-c2nc(-c3cc(F)ccc3F)no2)c1-c1ccccc1 [Example 47, 3-(2,5-difluorophenyl)-5-{1[(1S,2R)-2-methylcyclohexyl]-5-phenyl-1H-pyrazol-4-yl}-1,2,4-oxadiazole]	8	571	–
O=C(O)C1CN(Cc2ccc(-c3noc(-c4cnn(CC5CC5)c4-c4ccncc4)n3)cc2)C1 [Example 101, 1-(4-(5-(1-(cyclopropylmethyl)-5-(pyridin-4-yl)-1H-pyrazol-4-yl)-1,2,4-oxadiazol-3-yl)benzyl)azetidine 3-carboxylic acid, formate]	12	1620	1.8
